According to US20140322704A1, “Hepatitis Virus Culture Systems Using Stem Cell-Derived Human Hepatocyte-Like Cells and Their Methods of Use” (The Florida State University Research Foundation, Inc., priority 2011, published 2014):

How the values were obtained:
Type in all cases: cell-based
JFH-1 based HCVcc = assay: HCVcc infection of DHHs in the presence of HCV inhibitors (FIG. 2D)
Excerpt: FIG. 2 depicts the results of experiments assessing infection of DHHs derived from hESCs and iPSCs. (A) Detection of HCV proteins in DHHs infected with JFH-1 based HCVcc. DHHs were inoculated with three different preparations of HCVcc at day 13 post-differentiation and cell lysates collected at day 21 for western blot analysis. The anti-NS3 antibody also recognized a non-specific band in the mock infected sample. (B) Immunostaining of infected DHHs. A JFH variant containing a FLAG tag in the NS5A protein was used to infect either Huh-7.5 or DHHs and staining was done with an anti-FLAG antibody. (C) Infection of Huh-7.5 and DHHs as measured by the HCV-dependent fluorescence relocalization assay. Reporter-transduced cells were infected with HCVcc and the cells were fixed for immunofluorescence analysis 72 hours post-infection. For the RFP-NLS-IPS expressing cells, HCV infection leads to complete nuclear translocation of the RFP; for the EGFP-IPS cells, HCV infection leads to redistribution of green fluorescence from a reticulate cytoplasmic pattern to a diffused pattern with a nuclear enrichment. […] The following inhibitors were included in the infection experiments. IFN: interferon-α, 80 units/ml; AR3A: anti-E2 neutralizing antibody, 1 μg/ml; ITX: ITX5061, an SR-BI inhibitor, 1 μM. (E) Comparison of HCVcc infection levels in DHHs and PHHs. PHHs were infected for 8 days to keep the infected days the same between the two cell types (DHHs were infected at day 13 and the lysed at day 21). (F) Infection of DHHs derived from an iPSC line. Differentiation and infection of iPS.K3 were performed as described for H9-derived DHHs (FIG. 1 and FIG. 2A).
All JFH-1 based HCVcc (Mut4-6, SAV, Jc1/GLuc2A, and DEYN-Jc1/GLuc2A) were produced in Huh-7.5 cells as previously described (2005, Lindenbach, et al., Science 309:623-626). Genotype 1b HCVser was obtained from a commercial supplier (Teragenix, Ft. Lauderdale, Fla.). All infections were done by incubating virus inoculum with cells for 6-9 hours before the cells were washed and changed into the appropriate medium for the specific cell type and differentiation stage. For the time course of DHHs permissiveness, infection of each time point was allowed to proceed for exactly 48 hours before cell harvesting and western blotting. Immunofluorescence analysis of HCV receptors and intracellular antigens. Cells were fixed in 4% paraformaldehyde in phosphate-buffered saline (PBS) at room temperature for 10 minutes and blocked with PBGB (PBS containing 10% normal goat serum, and 1% bovine serum albumin (BSA)) at room temperature for 2 hours. Cells were incubated with primary antibodies (anti-CD81, anti-SR-B1, anti-claudin 1 and anti-occludin, diluted in PBG at 1:200) at 4° C. overnight or 2 hours at room temperature. […]

genotype 1b HCVser = assay: Infection of DHHs by patient serum-derived HCV, western blotting (FIG. 7A); settings: IFN-α 50 units/ml; genotype 1b patient serum; 48 hours
Excerpt: FIG. 7 depicts the results of experiments assessing the direct infection of DHHs by HCV derived from patient serum. (A) Detection of IFN-sensitive HCVser infection by western blotting IFN-α was included in the medium at 50 units/ml when indicated. (B) Visualization of single cell infection events by HCVser using the HCV-dependent fluorescence relocalization assay. Arrows indicate individual cells infected with HCVser and showing nuclear translocation of the RFP. (C) Secretion of HCV core antigen into culture supernatant by HCVser-infected DHHs. Values for core levels in supernatants collected 48 hours post-infection were plotted. IFN-α was included in the medium at 50 units/ml when indicated. Error bars represent standard deviation of replicate experiments. (D) HCVser preferentially infected DHHs over Huh-7.5 cells. […]
Although robust infection of PHHs by HCVcc has been reported (2010, Podevin et al., Gastroenterology 1355-1364; 2010, Ploss et al., Proc Natl Acad Sci USA 107:3141-3145; 2010, Banaudha et al., Hepatology 51:1922-1932), direct infection by HCV derived from patient serum (HCVser) remained inefficient (2010, Podevin et al., Gastroenterology. 139:1355-1364; 1998, Fournier et al., J Gen Virol. 79:2367-2374). […] In addition, secretion of HCV core antigen was detected in the supernatant of the DHHs infected by HCVser (FIG. 7C).

HCVcc = assay: Secretion of HCV core antigen into culture medium by HCVcc-infected DHHs, core ELISA (FIG. 3B); settings: IFN-α 50 units/ml; 48 hours after infection; H9-derived DHHs
Description: FIG. 3 depicts the results of experiments showing that DHHs support persistent infection and secrete infectious HCV particles. (A) Continuous replication of HCVcc in DHHs. Day-10 DHHs were infected with Jc1/GLuc2A for 9 hours before the inoculum was removed and the cells were changed into medium E with or without a cyclophilin inhibitor CsA at 1 μg/ml. Culture supernatants were collected daily to measure luciferase activity. The culture media was replaced with thorough washing every 48 hours and CsA was included every time fresh media was used. Error bars represent standard deviation from triplicate experiments. (B) Secretion of HCV core antigen into the culture medium by infected DHHs. […]
To quantify miR-122 levels, TRIzol extracted RNA samples were reverse transcribed using TaqMan MicroRNA Reverse Transcription kit (Applied Biosystems) and the resulting cDNA served as templates for Real-Time PCR analysis using TaqMan MicroRNA Assay for miR-122 (Applied Biosystems). […]
To verify continuous viral replication during the infection period, the secretion of Gaussia luciferase into the culture media by the DHHs infected with the GLuc reporter virus was monitored using a procedure previously used to monitor persistent HCV infection in microscale PHHs (2010, Floss et al., Proc Natl Acad Sci USA 107:3141-3145). […]

Row | Molecule | HCV infection in DHHs (JFH-1 based HCVcc; ITX5061 1 μM) | HCV infection in DHHs (JFH-1 based HCVcc; ITX5061 1 μM, listed as small molecule compound that inhibits the scavenger receptor class B type I (SR-) | HCVser infection of DHHs detected by western blotting (genotype 1b HCVser) | HCV infection in DHHs (JFH-1 based HCVcc; interferon-α 80 units/ml) | HCV infection in DHHs (JFH-1 based HCVcc; interferon-α 80 units/ml, listed as IFN) | HCV core antigen in the supernatant of infected cells (HCVcc)
1 | COc1c(NC(=O)C(=O)c2ccc(OCCN3CCOCC3)c3ccccc23)cc(C(C)(C)C)cc1NS(C)(=O)=O [ITX5061] | abolished HCV infection | efficiently blocked infection | – | – | – | –
2 | interferon-α [IFN-α] | – | – | sensitive to IFN inhibition | efficiently blocked infection | abolished HCV infection | not in that of the similarly infected but IFN-treated cells
